The data set has as its system S. typhimurium/E. coli reverse mutation, colony counts. In words: Bacterial reverse mutation test (aka Ames test) summary data. In a few lines:
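S. typhimurium his⁻ strains (TA97–TA1538) and E. coli WP2 uvrA pKM101 trp⁻, dosed over a range with or without rat, hamster or mouse liver S9. Preincubated 20 min at 37° C (or plate incorporation), plated in agar, incubated usually two days. Revertant colonies counted against negative controls.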
In general terms: In the Ames test, an excess of revertant colonies over the control signals mutagenicity.

Each structure is given as a SMILES string. Inconclusive results are not listed. Calls of active or inactive are those of the source. The rule behind the calls is not given here.

`Cc1cc(C(C)(C)C)c(O)c(C(C)(C)C)c1`: the outcome is “inactive; negative”. The result for `Brc1cc(Br)c(Oc2cc(Br)c(Br)cc2Br)cc1Br` reads “inactive; negative”; that for `CC(N)=S`, “inactive; negative”; that for `O=C1NC(=O)C(O)(O)C(=O)N1`, “inactive; negative”. As to `Nc1ccc(N=Nc2cccc(N=Nc3ccc(N)cc3N)c2)c(N)c1`, the outcome is “active; positive”. As for `c1cc2ccc3cccc4ccc(c1)c2c34`, the outcome was “active; positive”. The result for `O=S(=O)(O)C(F)(F)C(F)(F)C(F)(F)C(F)(F)C(F)(F)C(F)(F)C(F)(F)C(F)(F)F` reads “inactive; negative”.

On to `S=C=Nc1cccc2ccccc12`, for which the outcome is “active; positive”. As to `CCCCOCCO`, the outcome is “inactive; negative”. `COc1cc2c(c(OC)c1OC)-c1ccc(OC)c(=O)cc1[C@@H](NC(C)=O)CC2`: the outcome is “inactive; negative”.

`O=C(O)COc1ccccc1`: the outcome is “inactive; negative”. With `CC(C)N`, the outcome was “inactive; negative”. For `CC(=O)NNc1ccccc1` the value was “active; positive”.

In the case of `CCOc1ccc(NC(C)=O)cc1`, the outcome was “inactive; negative”. For `CCCCCCCCCCCC(=O)[O][Sn]([CH2]CCC)([CH2]CCC)[O]C(=O)CCCCCCCCCCC` the value was “inactive; negative”; for `Nc1ccc([N+](=O)[O-])cc1O`, “active; positive”.

For `CCCCCCCCc1ccc(Nc2ccc(CCCCCCCC)cc2)cc1`, the outcome is “inactive; negative”. Consider `COCCOC(=O)c1ccccc1C(=O)OCCOC`, for which the outcome is “active; positive”. The result for `CC1CCCO1` (stereo not given) reads “inactive; negative”; that for `Nc1ccc(F)cc1F`, “active; positive”; that for `c1ccc2c(c1)Oc1ccccc1S2`, “inactive; negative”. The result for `O=C(O)c1ccccc1Cl` reads “inactive; negative”. The result for `Nc1ccc(O)c(N)c1` reads “active; positive”; that for `CCCOC(=O)c1cc(O)c(O)c(O)c1`, “inactive; negative”; that for `COC(=O)c1ccccc1O`, “active; weakly positive”.

As to `Nc1ccc(N)cc1`, the outcome was “active; positive”.

`CN(C)CCOC(C)(c1ccccc1)c1ccccn1` (stereo not given): the outcome is “inactive; negative”. For `CC(=O)Nc1ccccc1C` the value was “active; positive”; for `Cc1ccc(CO)cc1`, “inactive; negative”.

`O=C=S`: the outcome is “active; weakly positive”. For `CCC(C)=O` the value was “inactive; negative”; for `Nc1ccc([N+](=O)[O-])cc1N`, “active; positive”; for `COCCOCCOC`, “inactive; negative”. For `CCCCCCOCC1CO1` (stereo not given) the value was “active; positive”; for `O=C(Nc1ccc(Cl)cc1)Nc1ccc(Cl)c(Cl)c1`, “inactive; negative”. For `NCCO` the value was “inactive; negative”.

For `CCc1nc(N)nc(N)c1-c1ccc(Cl)cc1`, the outcome was “inactive; negative”.

In the case of `OCC(O)CCl` (stereo not given), the outcome is “active; positive”. The result for `CCCN(CCC)C(=O)SCC` reads “inactive; negative”.

On to `CCC(C)C`, for which the outcome was “inactive; negative”. For `Oc1ccc(Cl)cc1Cc1cc(Cl)ccc1O` the value was “active; positive”. The result for `O=C(O)c1ccc(O)cc1O` reads “inactive; negative”. As to `C=CCOC(C)=O`, the outcome was “active; positive”. The result for `CCCl` reads “active; positive”. For `Oc1ccc2c(c1)OCO2` the value was “inactive; negative”; for `C=CC(=O)OCC`, “active; weakly positive”; for `Brc1ccccc1`, “inactive; negative”. As to `CCCCOCCOCCO`, the outcome is “inactive; negative”. The result for `Clc1nc(Cl)nc(Nc2ccccc2Cl)n1` reads “inactive; negative”; that for `c1ccccc1`, “inactive; negative”. Turning to `O=C(O)C(Cl)(Br)Br`, the outcome is “active; positive”.

In the case of `C=CCc1cc(OC)c2c(c1)OCO2`, the outcome is “inactive; negative”. For `CCOc1ccc2nc(N)sc2c1` the value was “active; positive”. For `C[S+](CC[C@H](N)C(=O)[O-])C[C@H]1O[C@@H](n2cnc3c(N)ncnc32)[C@H](O)[C@@H]1O` (stereo not given in full) the value was “inactive; negative”. As to `O=C1O[C@H]([C@@H](O)CO)C(O)=C1O`, the outcome was “active; weakly positive”.

As for `C1CN(CCOCCN2CCOCC2)CCO1`, the outcome was “inactive; negative”. For `CCC[N+](=O)[O-]` the value was “inactive; negative”; for `O=C(O)CNC(=O)c1ccc([N+](=O)[O-])cc1`, “active; positive”. For `COC(=O)/C=C/C(C)=C\C=C\C(C)=C\C=C\C=C(C)\C=C\C=C(C)\C=C\C(=O)O` the value was “active; positive”; for `c1ccc2c(c1)ccc1cc3c(ccc4ccccc43)cc12`, “active; positive”; for `Nc1ccc(Sc2ccc(N)cc2)cc1`, “active; positive”. Regarding `Cc1ncc[nH]1`, the outcome is “inactive; negative”.

On to `c1ccc2scnc2c1`, for which the outcome was “inactive; negative”.

For the compound `Clc1ccc2ccccc2c1`, the outcome is “inactive; negative”. For `CCCCCCCCCCCCCOC(=O)c1ccccc1C(=O)OCCCCCCCCCCCCC` the value was “inactive; negative”; for `C1CN1c1nc(N2CC2)nc(N2CC2)n1`, “active; positive”; for `CCCCCc1cc(O)cc(O)c1`, “inactive; negative”.

On to `COCCOC(C)=O`, for which the outcome was “active; weakly positive”. For `[Cl-].[Cl-].[Hg+2]` the value was “inactive; negative”; for `CCCCCNCCCCC`, “inactive; negative”; for `CCCCO`, “inactive; negative”.

Turning to `O=S1OCC2C(CO1)C1(Cl)C(Cl)=C(Cl)C2(Cl)C1(Cl)Cl` (stereo not given), the outcome is “inactive; negative”. In the case of `Oc1cccc(O)c1`, the outcome was “inactive; negative”. The result for `Fc1ccccc1` reads “active; positive”; that for `[O]=[Cr](=[O])([OH])[O][Cr](=[O])(=[O])[OH]`, “active; positive”. The result for `NS(=O)(=O)c1cc2c(cc1Cl)NC=NS2(=O)=O` reads “inactive; negative”; that for `ClC=CCCl`, “active; positive”; that for `CC(C)Oc1ccc(Nc2ccccc2)cc1`, “inactive; negative”. In the case of `O=[N+]([O-])CCO`, the outcome was “active; positive”. For `COc1ccc(CN(CCN(C)C)c2ncccn2)cc1` the value was “inactive; negative”. For `CC(C)(Cl)[N+](=O)[O-]` the value was “active; weakly positive”. For `Nc1ccccc1C(=O)OCCc1ccccc1`, the outcome is “inactive; negative”. `Nc1ccc([N+](=O)[O-])c(N)c1`: the outcome is “active; positive”. The result for `CN(C)C(=O)Oc1ccc[n+](C)c1` reads “inactive; negative”; that for `CCS(=O)CCSP(=O)(OC)OC` (stereo not given), “active; positive”; that for `NC1CCCCC1`, “inactive; negative”. Turning to `CN(C)[C@@H]1C(=O)C(C(N)=O)=C(O)[C@@]2(O)C(=O)C3=C(O)c4c(O)cccc4[C@@](C)(O)[C@H]3[C@H](O)[C@@H]12`, the outcome was “inactive; negative”.

In the case of `CN1CCC(CN2c3ccccc3Sc3ccccc32)C1` (stereo not given), the outcome is “inactive; negative”. The result for `CCCCCCCCOc1ccc(C(=O)O)cc1` reads “inactive; negative”. `CC1=C(/C=C/C(C)=C/C=C/C(C)=C\C=O)C(C)(C)CCC1`: the outcome is “active; weakly positive”. The result for `O=C(CCl)c1ccc(Cl)cc1Cl` reads “active; positive”. The result for `CCC(Cl)[N+](=O)[O-]` (stereo not given) reads “active; positive”; that for `Nc1ccccc1`, “inactive; negative”. For `N#CCCCCC#N` the value was “inactive; negative”; for `S=C1NC=NC2N=CNC12` (stereo not given), “active; positive”; for `CC(C)(OO)c1ccccc1`, “active; positive”. For the compound `CC(=O)NNC(=O)c1ccccn1`, the outcome was “inactive; negative”. The result for `CCCCC(CC)CNCC(CC)CCCC` (stereo not given) reads “inactive; negative”. Regarding `[Co]`, the outcome is “active; positive”. For `CCNc1nc(Cl)nc(NC(C)C)n1` the value was “inactive; negative”; for `CN(C)CCN(Cc1cccs1)c1ccccn1`, “inactive; negative”. For `CCOc1ccc(NC(N)=O)cc1` the value was “inactive; negative”; for `COc1ccccc1C=CC=O`, “active; weakly positive”; for `Nc1ncn[nH]1`, “inactive; negative”. For `Nc1ccc(Nc2ccccc2)cc1` the value was “inactive; negative”; for `Cc1ccc(S(=O)(=O)Oc2ccc(N=Nc3ccc(-c4ccc(N=Nc5c(O)ccc6cc(S(=O)(=O)O)cc(S(=O)(=O)O)c56)c(C)c4)cc3C)cc2)cc1`, “active; positive”. As for `COc1ccc(CN(CCN(C)C)c2ccccn2)cc1`, the outcome was “inactive; negative”. For `Cc1ccc(C)cc1` the value was “inactive; negative”. Regarding `O=Cc1ccccc1`, the outcome is “inactive; negative”. With `Cc1ccc(N(C)C)cc1`, the outcome was “inactive; negative”. The result for `C=CCc1ccc(OC)cc1` reads “inactive; negative”. Take `COP(=S)(OC)Oc1ccc(SC)c(C)c1`: the outcome is “active; weakly positive”.

For `O=c1ccc(O)n[nH]1`, the outcome was “active; weakly positive”. For `CSCCC=O`, the outcome is “inactive; negative”. For `CC(C)=CCCC(C)=CC=O` the value was “inactive; negative”.

(Values after PubChem BioAssay AID2202554 (NIEHS Division of Translational Toxicology (DTT)).)
